Laboratory results from paper PMC10870825, “Design, synthesis, and inhibitory activity of hydroquinone ester derivatives against mushroom tyrosinase” (RSC Advances, 2024).
Entries after “also recorded” stand apart in the source; their conditions may differ. Like-named read-outs stand apart in the source and are kept apart here.

Key:
[1] = molecular target: T1, mushroom tyrosinase (mTyr) (Agaricus bisporus, UniProt C7FF04); experiment: Inhibitory activity assay on mTyr with L-tyrosine as substrate; assay type: biochemical; settings: for Concentration at maximum inhibition rate: second figure of the cell rate/concentration
T1 sequence (C7FF04 1-392): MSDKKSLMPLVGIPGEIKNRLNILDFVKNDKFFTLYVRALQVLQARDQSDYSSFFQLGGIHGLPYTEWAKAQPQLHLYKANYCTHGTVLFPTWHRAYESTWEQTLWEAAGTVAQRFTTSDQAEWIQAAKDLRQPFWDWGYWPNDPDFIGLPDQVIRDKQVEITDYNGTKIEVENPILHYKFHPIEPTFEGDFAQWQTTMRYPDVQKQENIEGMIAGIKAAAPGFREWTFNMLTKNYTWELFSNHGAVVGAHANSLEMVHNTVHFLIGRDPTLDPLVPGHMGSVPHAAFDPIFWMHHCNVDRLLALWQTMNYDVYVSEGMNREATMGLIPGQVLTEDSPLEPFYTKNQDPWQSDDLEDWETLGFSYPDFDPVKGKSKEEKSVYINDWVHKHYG
Procedure: The synthesized hydroquinone ester derivatives were dissolved in 3% dimethyl sulfoxide (DMSO) solution and then diluted with phosphate-buffered solution (PBS, pH 6.86, 100 mM) to obtain different concentrations. […] The plate was incubated at 37 °C for 30 minutes, after which 20 μL of L-tyrosine solution (1 mM) was added and mixed. The absorbance at a wavelength of 475 nm was measured using a SpectraMax 190 microplate reader (MolecularDevices, USA) continuously for 30 minutes. PBS was used as a blank control, and kojic acid was used as a positive control.

[2] = molecular target: T1, mushroom tyrosinase (mTyr); experiment: Inhibition reversibility and type assay (Lineweaver–Burk kinetics) on mTyr; assay type: biochemical; settings: for Inhibition type: Lineweaver–Burk plots, 300 U/mL mTyr, varying L-tyrosine
Procedure: The methodology for evaluating the reversibility of inhibition and the inhibition type of the compounds on mTyr closely parallels the procedure outlined in the inhibitory activity assay of compounds on mTyr.
For the evaluation of inhibition reversibility, a constant concentration of 1 mM L-tyrosine was employed. […] The absorption was measured to determine the initial enzymatic reaction rate corresponding to each enzyme concentration. Specifically, the initial enzymatic reaction rate was calculated by subtracting the initial absorbance from the absorbance recorded at a specific time and then dividing the result by the corresponding time interval.[32] Subsequently, the collected data were plotted on a scatter plot, with the initial enzymatic reaction rate represented on the Y-axis and the enzyme concentration on the X-axis. In cases of reversibility, this will result in fitting a set of straight lines passing through the origin. Conversely, when reversibility was absent, a set of parallel lines emerged as the fit.[33]
In order to investigate the inhibition type, a final concentration of 300 U per mL mTyr was employed, accompanied by varying concentrations of L-tyrosine. The enzymatic reaction rate was evaluated for different concentrations of compounds 3a–3e. Subsequently, the ΔOD475 values were plotted against the L-tyrosine concentration using the Lineweaver–Burk equation, allowing for the creation of double reciprocal plots.

[3] = molecular target: T1, mushroom tyrosinase (mTyr); settings: read-out: IC50 for inhibiting mTyr activity; literature value; ref [15]; cited from earlier work
[4] = tested on: human immortalized keratinocyte (HaCaT) non-tumor cells; experiment: CCK-8 cell proliferation and cytotoxicity assay, HaCaT cells; assay type: cell-based
Procedure: (§1) Cell proliferation and cytotoxicity assays were performed using the CCK-8 on Human Epidermal Melanoma A375 and HaCaT cells. Initially, the cells were seeded in 96-well plates at a density of 4 × 10^4 cells per well and incubated for 24 hours at 37 °C with 5% CO2 in a humidified incubator. Each treatment was conducted in six duplicate wells. Various concentrations of the tested compounds were added to the wells, and the cells were further incubated for 72 hours. After the incubation period, CCK-8 solution was added to each well and incubated for an additional 2 hours. The absorbance of each well at 450 nm was measured using an absorbance microplate reader (BioTek ELx800, USA). Negative controls with cells treated with distilled water and positive controls with cells were treated with 10 μg mL^−1 taxol was included in the assay. The percentage of cell growth inhibition was calculated using eqn (2).2 [drawing 1] where G1 represents the absorbance of a mixture containing cells, medium, and CCK8, G2 represents the absorbance of absorbance of a mixture containing cells, medium, CCK8, and the test compound; G3 represents a mixture containing medium and CCK8.
(§2) Cell growth and morphology were observed using an inverted microscope (Olympus IX51, Japan). The experiments were conducted in triplicate to ensure accuracy and consistency of results.

[5] = tested on: human epidermal melanoma A375 cells; experiment: CCK-8 cell proliferation and cytotoxicity assay, A375 cells; assay type: cell-based
Procedure: as §1, §2

[6] = substrate L-tyrosine, read-out: IC50 for inhibiting mTyr activity

Row | SMILES | Concentration at maximum inhibition rate [1] | IC50 [1, 6] | Inhibition type [2] | maximum reaction rate (Vm) of mTyr ([2]; compound concentration 5 μM) | maximum reaction rate (Vm) of mTyr ([2]; compound concentration 10 μM) | maximum reaction rate (Vm) of mTyr ([2]; compound concentration 20 μM) | melting point | other results
1 | O=C(Oc1ccc(O)cc1)c1ccc(F)cc1 [Compound 3e, 4-hydroxyphenyl 4-fluorobenzoate] | 100 µM | 24.7 ± 3.04 µM | competitive inhibition; also recorded: competitive inhibitors | 1.474 ×103, min-1 | 1.470 ×103, min-1 | 1.468 ×103, min-1 | 142 to 144 °C | –
2 | O=C(O)C=Cc1ccc(O)cc1 [4-Hydroxycinnamic acid, 4-hydroxycinnamic acid, reference compound] | 50 µM | – | – | – | – | – | – | IC50 [1]: 16.4 ± 5.42 µM
3 | Oc1ccc(O)cc1 [Hydroquinone, hydroquinone] | 75 µM | 22.78 ± 0.16 µM | – | – | – | – | – | –
4 | O=C(Oc1ccc(OC(=O)c2ccc(F)cc2)cc1)c1ccc(F)cc1 [Compound 3f, 1,4-phenylene bis(4-fluorobenzoate)] | 100 µM | 54.2 ± 8.65 µM | – | – | – | – | 196 to 198 °C | –
5 | O=C(O)/C=C/c1ccccc1 [Cinnamic acid, cinnamic acid] | – | – | – | – | – | – | – | IC50 [3]: 201 ± 5.3 µM
6 | O=C(CCc1ccccc1)Oc1ccc(OC(=O)CCc2ccccc2)cc1 [Compound 3g, 1,4-phenylene bis(3-phenylpropanoate)] | – | – | – | – | – | – | 128 to 130 °C | –
7 | O=C(Oc1ccc(O)cc1)c1ccccc1 [Compound 3d, 4-hydroxyphenyl benzoate] | 75 µM | 20.5 ± 1.79 µM | competitive inhibition; also recorded: competitive inhibitors | 0.9216 ×103, min-1 | 0.9208 ×103, min-1 | 0.9209 ×103, min-1 | 150 to 152 °C | –
8 | O=C(CCc1ccccc1)Oc1ccc(O)cc1 [Compound 3c, 4-hydroxyphenyl 3-phenylpropanoate] | 50 µM | 7.46 ± 0.9 µM | Noncompetitive; also recorded: non-competitive inhibition; also recorded: non-competitive inhibitors | 0.6327 ×103, min-1 | 0.3424 ×103, min-1 | 0.2581 ×103, min-1 | 149 to 151 °C | –
9 | O=C(/C=C/c1ccc(O)cc1)Oc1ccc(O)cc1 [Compound 3a, 4-hydroxyphenyl (2E)-3-(4-hydroxyphenyl) prop-2-enoate] | 10 µM | 1.75 ± 0.02 µM | Noncompetitive; also recorded: non-competitive inhibition; also recorded: non-competitive inhibitors | 0.4272 ×103, min-1 | 0.2843 ×103, min-1 | 0.1836 ×103, min-1 | 217 to 220 °C | –
10 | O=C(C=Cc1ccccc1)Oc1ccc(O)cc1 [Compound 3b, 4-hydroxyphenyl cinnamate] | 2.5 µM | 0.18 ± 0.06 µM | Mix-noncompetitive; also recorded: mixed-type inhibition | – | – | – | 171 to 173 °C | inhibition at 50 µM ([4]; Homo sapiens, HaCaT, 50 μM, read-out: inhibition rate on HaCaT cells): 9.09%; IC50 ([4]; Homo sapiens, HaCaT, 72 hours, CCK-8, read-out: IC50 against HaCaT cells): 169 µM; inhibition rate on HaCaT cells ([4]; concentration range 3.125–25 μM): below 5%; maximum reaction rate (Vm) of mTyr ([2]; compound concentration 1 μM): 0.7572 ×103, min-1; maximum reaction rate (Vm) of mTyr ([2]; compound concentration 2 μM): 0.3461 ×103, min-1; maximum reaction rate (Vm) of mTyr ([2]; compound concentration 4 μM): 0.2145 ×103, min-1; Ki ([2]; read-out: free enzyme inhibition constant (KI)): 1.88 µM; mTyr–substrate complex inhibition constant (KIS) ([2]; secondary plots, mixed-type inhibition): 0.3395 µM; inhibition at 50 µM ([5]; A-375, 50 μM, read-out: inhibition rate on A375 cells): 60.9%; IC50 ([5]; A-375, 72 hours, CCK-8, read-out: IC50 against A375 cells): 40.8 µM
